Earlier results in patent publication US12194020B2, “Reversing baldness through cannabinoid receptor activation” (priority 2017, dated 2025).

Legend:
[1] = test system: human scalp hair follicles (HF); conditions: human HF organ culture
[2] = biological target: CB2 (Homo sapiens, UniProt P34972)
[3] = bimatoprost applied to the base of the fingernails
[4] = test system: NO production; conditions: read-out: IC50, inhibits NO production
[5] = test system: CB1

Sequence of CB2 (P34972 whole entry, species assumed): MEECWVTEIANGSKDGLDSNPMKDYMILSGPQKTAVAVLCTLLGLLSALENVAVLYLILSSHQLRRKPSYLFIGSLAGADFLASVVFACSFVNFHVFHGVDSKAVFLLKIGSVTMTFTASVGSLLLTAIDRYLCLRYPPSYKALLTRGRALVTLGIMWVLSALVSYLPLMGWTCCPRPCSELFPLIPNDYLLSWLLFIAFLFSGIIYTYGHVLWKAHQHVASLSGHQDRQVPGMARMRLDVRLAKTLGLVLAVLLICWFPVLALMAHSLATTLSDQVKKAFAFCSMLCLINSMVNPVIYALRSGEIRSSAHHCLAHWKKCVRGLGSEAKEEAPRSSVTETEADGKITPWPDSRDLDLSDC

## CCCCC/C=C\C/C=C\C/C=C\C/C=C\CCCC(=O)NCCO [AEA, N-arachidonoylethanolamide]
[1]
  apoptosis of cultured human HF / hair matrix keratinocytes: stimulates apoptosis
  hair matrix / HF keratinocyte proliferation: significantly (P<0.05) and dose-dependently inhibited
  hair shaft elongation: significantly (P<0.05) and dose-dependently inhibited

## Cc1c(C(=O)NN2CCCCC2)nn(-c2ccc(Cl)cc2Cl)c1-c1ccc(Cl)cc1 [SR141716A]
[2]
  affinity for CB2: very low affinity

## CCCCCc1cc(O)c2c(c1)OC(C)(C)[C@@H]1CCC(C)=C[C@@H]21 [THC, Δ^9-tetrahydrocannabinol]
[1]
  apoptosis of cultured human HF / hair matrix keratinocytes: induced
  catagen development: premature catagen development
  hair matrix / HF keratinocyte proliferation: suppressed proliferation
  hair shaft elongation: significantly inhibited

## CCNC(=O)CCC/C=C\C[C@@H]1[C@@H](/C=C/[C@@H](O)CCc2ccccc2)[C@H](O)C[C@@H]1O [bimatoprost]
[3]
  increase in fingernail growth from baseline: 16.9%

## C=CCc1ccc(O)c(-c2cc(CC=C)ccc2O)c1 [magnolol]
[4]
  IC50: ~6.2 µM

## desulfohaplosamate
[2]
  affinity for CB2: higher affinity

## haplosamate A
[5]
  affinity for CB1: strong affinity
